# In PMC9312091, “Mining Amphibian and Insect Transcriptomes for Antimicrobial Peptide Sequences with rAMPage” (Antibiotics, 2022):
# Peptide text beside a SMILES is read from it.
# System: E. coli and/or S. aureus
# Experiment: Antimicrobial susceptibility testing (MIC and MBC), summary statements
# Format: cell-based
# Settings: AST in vitro against E. coli ATCC 25922 and S. aureus ATCC 29213
# Experimental: A total of 21 of the 1137 putative AMPs (Table S2) were synthesized (Genscript Biotech, Piscataway, NJ, USA) and tested for their antimicrobial activity against Escherichia coli ATCC 25922 and Staphylococcus aureus ATCC 29213 in a minimum of three independent experiments (see Figure S5 for a full set of experimental results). In these antimicrobial susceptibility tests, AMP activity was assessed using two metrics: minimum inhibitory and bactericidal concentrations (MIC and MBC, respectively). Lower MIC and MBC values are desirable as they indicate that lower AMP concentrations are sufficient for inhibitory or bactericidal activity, respectively. AMP toxicity was measured by HC50 hemolytic concentration values—the concentration required to lyse ≥ 50% of porcine red blood cells. […]
# Twenty-one putative AMP sequences identified using the rAMPage pipeline were validated through a minimum of three AST experiments performed independently on separate days. In these tests, the AMP activity was assessed using two metrics: minimum inhibitory concentration and minimum bactericidal concentration (MIC and MBC, respectively). MIC and MBC values were determined using procedures outlined by the Clinical and Laboratory Standards Institute (CLSI), with the recommended adaptations for the testing of cationic AMPs described previously. […]
compound,measurement,value
CC(C)C[C@H](NC(=O)[C@H](CCCCN)NC(=O)[C@H](CCC(=O)O)NC(=O)[C@H](CC(C)C)NC(=O)[C@H](CCCNC(=N)N)NC(=O)[C@@H](NC(=O)[C@H](Cc1ccc(O)cc1)NC(=O)[C@H](CC(N)=O)NC(=O)[C@H](CCCCN)NC(=O)[C@H](CCCCN)NC(=O)[C@H](CC(N)=O)NC(=O)[C@@H](NC(=O)[C@H](CC(C)C)NC(=O)[C@H](CCCCN)NC(=O)[C@H](CCCCN)NC(=O)[C@@H](NC(=O)[C@H](CO)NC(=O)[C@H](CCCCN)NC(=O)[C@H](CO)NC(=O)[C@H](CC(C)C)NC(=O)[C@H](Cc1c[nH]c2ccccc12)NC(=O)[C@@H](N)CO)C(C)C)C(C)C)[C@@H](C)O)C(=O)N[C@@H](C)C(=O)N[C@@H](CCCCN)C(=O)N[C@@H](CCCCN)C(=O)N[C@@H](CCCCN)C(=O)N[C@@H](CC(C)C)C(=O)N[C@@H](Cc1ccccc1)C(=O)N[C@@H](CC(N)=O)C(=O)N[C@@H](CCC(=O)O)C(=O)O [TeRu4] (H-SWLSKSVKKLVNKKNYTRLEKLAKKKLFNE-OH; N-terminus and C-terminus assumed),antimicrobial activity (in words),active only against E. coli
